# Measurements: ChEMBL document CHEMBL3879881, “Substituted pyrazolyl compounds for the treatment of inflammation” (2005)
# pIC50: −log10 of the molar value.
# Molecular target: T1, Inhibitor of nuclear factor kappa-B kinase subunit beta (Homo sapiens, UniProt O14920)
# T1 sequence (O14920 whole entry): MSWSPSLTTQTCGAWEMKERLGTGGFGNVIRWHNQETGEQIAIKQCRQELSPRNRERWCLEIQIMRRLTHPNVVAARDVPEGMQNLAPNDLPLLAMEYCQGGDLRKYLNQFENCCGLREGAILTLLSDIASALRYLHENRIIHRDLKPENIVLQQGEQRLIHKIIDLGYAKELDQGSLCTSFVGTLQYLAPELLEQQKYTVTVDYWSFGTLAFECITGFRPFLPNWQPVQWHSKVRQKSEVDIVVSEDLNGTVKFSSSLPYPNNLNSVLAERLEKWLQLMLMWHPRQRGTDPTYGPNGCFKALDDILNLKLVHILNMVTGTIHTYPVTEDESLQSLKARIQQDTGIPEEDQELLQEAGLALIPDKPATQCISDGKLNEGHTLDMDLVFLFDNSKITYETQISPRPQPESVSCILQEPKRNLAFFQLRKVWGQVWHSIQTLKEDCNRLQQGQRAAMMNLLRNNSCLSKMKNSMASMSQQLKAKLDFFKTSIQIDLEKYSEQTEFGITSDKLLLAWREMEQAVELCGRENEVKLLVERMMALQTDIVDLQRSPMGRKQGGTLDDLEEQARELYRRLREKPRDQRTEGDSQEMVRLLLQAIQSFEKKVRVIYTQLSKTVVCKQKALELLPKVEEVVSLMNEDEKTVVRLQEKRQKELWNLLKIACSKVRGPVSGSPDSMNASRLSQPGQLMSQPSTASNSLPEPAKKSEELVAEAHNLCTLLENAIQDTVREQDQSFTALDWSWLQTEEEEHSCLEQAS
# Assay: Inhibition of human recombinant C-terminal FLAG-epitope-tagged IKK2 expressed in baculovirus using biotinylated IkappaBalpha peptide as substrate assessed as decrease in [gamma-33P]-ATP incorporation in substrate after 30 mins by scintillation counting method
row,Structure (SMILES),pIC50
1,CCC(=O)Nc1ccc2c(c1)-c1c(c(C(N)=O)nn1-c1ccc(S(N)(=O)=O)cc1)CC2,5.00 to 6.00
2,CC(C)CNc1ccc2c(c1)-c1c(c(C(N)=O)nn1-c1ccc(S(N)(=O)=O)cc1)CC2,4.00 to 5.00
3,NC(=O)c1nn(-c2ccc(S(N)(=O)=O)cc2)c2c1CCc1ccc(NC(=O)C3CC3)cc1-2,5.00 to 6.00
4,NC(=O)c1nn(-c2ccc(S(N)(=O)=O)cc2)c2c1CCc1ccc(NS(=O)(=O)c3ccc(F)cc3F)cc1-2,4.00 to 5.00
5,CS(=O)(=O)Nc1ccc2c(c1)-c1c(c(C(N)=O)nn1-c1ccc(S(N)(=O)=O)cc1)CC2,≥ 6.00
6,NC(=O)c1nn(-c2ccc(S(N)(=O)=O)cc2)c2c1CCc1ccc(NC(=O)C3CCC3)cc1-2,5.00 to 6.00
7,NC(=O)c1nn(-c2ccc(S(N)(=O)=O)cc2)c2c1CCc1ccc(NS(=O)(=O)c3ccc(F)cc3)cc1-2,5.00 to 6.00
8,NC(=O)c1nn(-c2ccc(S(N)(=O)=O)cc2)c2c1CCc1ccc(NC(=O)Cc3ccccc3)cc1-2,5.00 to 6.00
9,Cc1ccc(CNc2ccc3c(c2)-c2c(c(C(N)=O)nn2-c2ccc(S(N)(=O)=O)cc2)CC3)cc1,4.00 to 5.00
10,NC(=O)c1nn(-c2ccc(S(N)(=O)=O)cc2)c2c1CCc1ccc(NS(=O)(=O)c3cc(C(F)(F)F)cc(C(F)(F)F)c3)cc1-2,5.00 to 6.00
11,NC(=O)c1nn(-c2ccc(S(N)(=O)=O)cc2)c2c1CCc1ccc(NS(=O)(=O)c3ccc(-c4ccccn4)s3)cc1-2,4.00 to 5.00
12,COc1ccc(CNc2ccc3c(c2)-c2c(c(C(N)=O)nn2-c2ccc(S(N)(=O)=O)cc2)CC3)cc1,5.00 to 6.00
13,CC(=O)Nc1ccc2c(c1)-c1c(c(C(N)=O)nn1-c1ccc(S(N)(=O)=O)cc1)CC2,4.00 to 5.00
14,Cn1cnc(S(=O)(=O)Nc2ccc3c(c2)-c2c(c(C(N)=O)nn2-c2ccc(S(N)(=O)=O)cc2)CC3)c1,4.00 to 5.00
15,NC(=O)c1nn(-c2ccc(S(N)(=O)=O)cc2)c2c1CCc1ccc(N)cc1-2,≥ 6.00
16,COc1ccc(S(=O)(=O)Nc2ccc3c(c2)-c2c(c(C(N)=O)nn2-c2ccc(S(N)(=O)=O)cc2)CC3)cc1OC,4.00 to 5.00
17,NC(=O)c1nn(-c2ccc(S(N)(=O)=O)cc2)c2c1CCc1ccc(NS(=O)(=O)c3ccccc3)cc1-2,5.00 to 6.00
18,CC(C)S(=O)(=O)Nc1ccc2c(c1)-c1c(c(C(N)=O)nn1-c1ccc(S(N)(=O)=O)cc1)CC2,5.00 to 6.00
19,CC(C)C(=O)Nc1ccc2c(c1)-c1c(c(C(N)=O)nn1-c1ccc(S(N)(=O)=O)cc1)CC2,5.00 to 6.00
20,CCCS(=O)(=O)Nc1ccc2c(c1)-c1c(c(C(N)=O)nn1-c1ccc(S(N)(=O)=O)cc1)CC2,5.00 to 6.00
21,NC(=O)c1nn(-c2ccc(S(N)(=O)=O)cc2)c2c1CCc1ccc(NS(=O)(=O)c3cccc4ccccc34)cc1-2,4.00 to 5.00
22,COCC(=O)Nc1ccc2c(c1)-c1c(c(C(N)=O)nn1-c1ccc(S(N)(=O)=O)cc1)CC2,5.00 to 6.00
23,NC(=O)c1nn(-c2ccc(S(N)(=O)=O)cc2)c2c1CCc1ccc(NS(=O)(=O)c3ccc(Cl)c(Cl)c3)cc1-2,5.00 to 6.00
24,COc1ccc(C(=O)Nc2ccc3c(c2)-c2c(c(C(N)=O)nn2-c2ccc(S(N)(=O)=O)cc2)CC3)cc1,≥ 6.00

row,Structure (SMILES),pIC50
1,NC(=O)c1nn(-c2ccc(S(N)(=O)=O)cc2)c2c1CCc1ccc(NS(=O)(=O)c3cc(Cl)ccc3Cl)cc1-2,5.00 to 6.00
2,NC(=O)c1nn(-c2ccc(S(N)(=O)=O)cc2)c2c1CCc1ccc(NC(=O)c3ccco3)cc1-2,4.00 to 5.00
3,NC(=O)c1nn(-c2ccc(S(N)(=O)=O)cc2)c2c1CCc1ccc(NC(=O)c3ccccc3)cc1-2,5.00 to 6.00
4,NC(=O)c1nn(-c2ccc(S(N)(=O)=O)cc2)c2c1CCc1ccc(NC(=O)c3ccc(C(F)(F)F)cc3)cc1-2,5.00 to 6.00
5,CCNC(=O)Nc1ccc2c(c1)-c1c(c(C(N)=O)nn1-c1ccc(S(N)(=O)=O)cc1)CC2,5.00 to 6.00
6,C[C@H](N)C(=O)Nc1ccc2c(c1)-c1c(c(C(N)=O)nn1-c1ccc(S(N)(=O)=O)cc1)CC2,5.00 to 6.00
7,NC(=O)c1nn(-c2ccc(S(N)(=O)=O)cc2)c2c1CCc1ccc(NC(=O)C34CC5CC(CC(C5)C3)C4)cc1-2,5.00 to 6.00
8,NC(=O)c1nn(-c2ccc(S(N)(=O)=O)cc2)c2c1CCc1ccc(NS(=O)(=O)c3ccc(Br)cc3F)cc1-2,5.00 to 6.00
9,NC(=O)c1nn(-c2ccc(S(N)(=O)=O)cc2)c2c1CCc1ccc(NS(=O)(=O)c3ccc(F)c(F)c3)cc1-2,4.00 to 5.00
10,NC(=O)c1nn(-c2ccc(S(N)(=O)=O)cc2)c2c1CCc1ccc(NS(=O)(=O)CC(F)(F)F)cc1-2,5.00 to 6.00
11,CN(C)c1cccc2c(S(=O)(=O)Nc3ccc4c(c3)-c3c(c(C(N)=O)nn3-c3ccc(S(N)(=O)=O)cc3)CC4)cccc12,5.00 to 6.00
12,NC(=O)c1nn(-c2ccc(S(N)(=O)=O)cc2)c2c1CCc1ccc(NC(=O)C3CCCC3)cc1-2,5.00 to 6.00
13,C[C@@H](N)C(=O)Nc1ccc2c(c1)-c1c(c(C(N)=O)nn1-c1ccc(S(N)(=O)=O)cc1)CC2,5.00 to 6.00
14,CCS(=O)(=O)Nc1ccc2c(c1)-c1c(c(C(N)=O)nn1-c1ccc(S(N)(=O)=O)cc1)CC2,≥ 6.00
15,Cc1ccc(S(=O)(=O)Nc2ccc3c(c2)-c2c(c(C(N)=O)nn2-c2ccc(S(N)(=O)=O)cc2)CC3)cc1,4.00 to 5.00
16,NC(=O)c1nn(-c2ccc(S(N)(=O)=O)cc2)c2c1CCc1ccc(NC(=O)c3cccs3)cc1-2,4.00 to 5.00
17,CCCC(=O)Nc1ccc2c(c1)-c1c(c(C(N)=O)nn1-c1ccc(S(N)(=O)=O)cc1)CC2,5.00 to 6.00
18,NC(=O)c1nn(-c2ccc(S(N)(=O)=O)cc2)c2c1CCc1ccc(NS(=O)(=O)C(F)(F)F)cc1-2,4.00 to 5.00
19,NC(=O)c1nn(-c2ccc(S(N)(=O)=O)cc2)c2c1CCc1ccc(NS(=O)(=O)c3cccc4cnccc34)cc1-2,5.00 to 6.00
20,NC(=O)c1nn(-c2ccc(S(N)(=O)=O)cc2)c2c1CCc1ccc(NC(=O)C3CCCCC3)cc1-2,5.00 to 6.00
21,NC(=O)c1nn(-c2ccc(S(N)(=O)=O)cc2)c2c1CCc1ccc(NS(=O)(=O)c3ccc4cccnc4c3)cc1-2,< 4.00
22,NC(=O)c1nn(-c2ccc(S(N)(=O)=O)cc2)c2c1CCc1ccc(NS(=O)(=O)c3cc(Cl)c(Cl)cc3Cl)cc1-2,5.00 to 6.00
23,COc1ccc(S(=O)(=O)Nc2ccc3c(c2)-c2c(c(C(N)=O)nn2-c2ccc(S(N)(=O)=O)cc2)CC3)cc1,4.00 to 5.00
24,NC(=O)c1nn(-c2ccc(S(N)(=O)=O)cc2)c2c1CCc1ccc(NC(=O)c3ccncc3)cc1-2,≥ 6.00

row,Structure (SMILES),pIC50
1,NC(=O)c1nn(-c2ccc(S(N)(=O)=O)cc2)c2c1CCc1ccc(NS(=O)(=O)c3cccc4nonc34)cc1-2,5.00 to 6.00
2,NC(=O)c1nn(-c2ccc(S(N)(=O)=O)cc2)c2c1CCc1ccc([N+](=O)[O-])cc1-2,< 4.00
3,NC(=O)c1nn(-c2ccc(S(N)(=O)=O)cc2)c2c1CCc1ccc(NS(=O)(=O)c3ccc(-c4ccccc4)cc3)cc1-2,5.00 to 6.00
4,NC(=O)c1nn(-c2ccc(S(N)(=O)=O)cc2)c2c1CCc1ccc(NS(=O)(=O)Cc3ccccc3)cc1-2,5.00 to 6.00
5,NC(=O)c1nn(-c2ccc(S(N)(=O)=O)cc2)c2c1CCc1ccc(NS(=O)(=O)c3ccc(Cl)cc3)cc1-2,5.00 to 6.00
6,COc1ccc(C(=O)Nc2ccc3c(c2)-c2c(c(C(N)=O)nn2-c2ccc(S(N)(=O)=O)cc2)CC3)cc1OC,5.00 to 6.00
7,CCCCC(=O)Nc1ccc2c(c1)-c1c(c(C(N)=O)nn1-c1ccc(S(N)(=O)=O)cc1)CC2,5.00 to 6.00
8,CCCCS(=O)(=O)Nc1ccc2c(c1)-c1c(c(C(N)=O)nn1-c1ccc(S(N)(=O)=O)cc1)CC2,5.00 to 6.00
9,NC(=O)c1nn(-c2ccc(S(N)(=O)=O)cc2)c2c1CCc1ccc(NS(=O)(=O)c3ccc(Br)cc3)cc1-2,5.00 to 6.00
10,NC(=O)c1nn(-c2ccc(S(N)(=O)=O)cc2)c2c1CCc1ccc(NC(=O)c3ccc(Cl)cc3)cc1-2,≥ 6.00
11,Cc1nc(S(=O)(=O)Nc2ccc3c(c2)-c2c(c(C(N)=O)nn2-c2ccc(S(N)(=O)=O)cc2)CC3)cn1C,4.00 to 5.00
12,NC(=O)c1nn(-c2ccc(S(N)(=O)=O)cc2)c2c1CCc1ccc(NS(=O)(=O)c3cccc(C(F)(F)F)c3)cc1-2,4.00 to 5.00
13,NC(=O)c1nn(-c2ccc(S(N)(=O)=O)cc2)c2c1CCc1ccc(NC(=O)c3ccc(F)cc3)cc1-2,≥ 6.00
14,NC(=O)c1nn(-c2ccc(S(N)(=O)=O)cc2)c2c1CCc1ccc(NCc3ccccc3)cc1-2,5.00 to 6.00
15,NC(=O)c1nn(-c2ccc(S(N)(=O)=O)cc2)c2c1CCc1ccc(NC(=O)Nc3ccccc3)cc1-2,5.00 to 6.00
16,NC(=O)c1nn(-c2ccc(S(N)(=O)=O)cc2)c2c1CCc1ccc(NC(=O)c3cccc(C(F)(F)F)c3)cc1-2,5.00 to 6.00
17,Cc1cccc(C(=O)Nc2ccc3c(c2)-c2c(c(C(N)=O)nn2-c2ccc(S(N)(=O)=O)cc2)CC3)c1,≥ 6.00
18,CC(=O)Nc1nc(C)c(S(=O)(=O)Nc2ccc3c(c2)-c2c(c(C(N)=O)nn2-c2ccc(S(N)(=O)=O)cc2)CC3)s1,5.00 to 6.00
19,CN(C)S(=O)(=O)c1ccc(-n2nc(C(N)=O)c3c2-c2cc(N)ccc2CC3)cc1,5.00 to 6.00
20,NC(=O)c1nn(-c2ccc(S(N)(=O)=O)cc2)c2c1CCc1ccc(NS(=O)(=O)c3ccc(Cl)cc3Cl)cc1-2,5.00 to 6.00
21,C=CCN(CC=C)S(=O)(=O)c1ccc(-n2nc(C(N)=O)c3c2-c2cc(N)ccc2CC3)cc1,5.00 to 6.00
22,NC(=O)c1nn(-c2ccc(S(N)(=O)=O)cc2)c2c1CCc1ccc(NCc3ccc(Cl)cc3)cc1-2,4.00 to 5.00
